Experimental data from patent US5401725A, “Neovascularization inhibition by adenosine-5'-phosphosulfates” (Unitika Ltd., priority 1990, dated 1995).

How the values were obtained:
[1] = test system: capillary vessel hyperplasia (experimental diabetic retinopathy); assay: therapeutic effect on experimental diabetic retinopathy; assay type: in vivo, rat (wister); details: for improving effect of pathologic state / beneficial effect on the pathologic state: I.P.; for improving effect of pathologic state: ten consecutive days; for beneficial effect on the pathologic state: ten days
Procedure: First, streptozocin in an amount of 65 mg/kg was administered to a six-week aged male wister rat from its vena caudalis, and about three months thereafter, 3,3'-iminodipropionitrile was administered. Rats in which abnormal growth of capillary vessel (hyperplasia retinitis) was observed were screened out and were subjected to a medicament administration test with ten rats as a group.
For comparison purposes, the effect of the medroxyprogesterone acetate (MPA), the conventional substance for inhibiting the neovascularization, was also tested by the same procedure as described above.

[2] = test system: neovascularization in the cornea; assay: inhibition of neovascularization in the cornea of rabbits (slow-releasing pellet); assay type: in vivo, rabbit; details: 100 μg and 1.0 mg in pellet with 10 μg prostaglandin E1 or 200 μg cuprous chloride; seven days
[3] = toxicity in rats, parenteral administration; assay type: in vivo, rat; details: 500 to 3,500 mg/kg in 50% dimethylsulfoxide, I.V. or I.P.
[4] = test system: neovascularization of chorio-allantoic membranes; assay: neovascularization inhibition on chorio-allantoic membranes of fertilized fowl eggs; assay type: in vivo; details: for neovascularization inhibitory rate: two days; for neovascularization inhibitory effect (in words): commercially available

For `CC(=O)O[C@]1(C(C)=O)CC[C@H]2[C@@H]3C[C@H](C)C4=CC(=O)CC[C@]4(C)[C@H]3CC[C@@]21C` [MPA, medroxyprogesterone acetate, reference compound], the “improving effect of pathologic state” value ([1]; Table 3, 1.5 mg/kg) was “-”, the “improving effect of pathologic state” value ([1]; Table 3, 3.0 mg/kg) was “+ (improving effects of pathologic state of 10 to 30%)” and the “improving effect of pathologic state” value ([1]; Table 3, 4.5 mg/kg) was “+ (improving effects of pathologic state of 10 to 30%)”. For the same compound, the “improving effect of pathologic state” value ([1]; Table 3, 6.0 mg/kg) was “++ (30 to 70%)”.
For `Nc1ncnc2c1ncn2[C@@H]1O[C@H](COP(=O)(O)OS(=O)(=O)O)[C@@H](OP(=O)(O)O)[C@H]1O` [PAPS, 3-phosphoadenosine 5'-phosphosulfate], the “beneficial effect on the pathologic state” value ([1]; 1.5 mg/kg administration group) was 10%, the “beneficial effect on the pathologic state” value ([1]; 3.0 mg/kg group) was 70% and the “beneficial effect on the pathologic state” value ([1]; 6.0 mg/kg group) was “at least 80%”. The “improving effect of pathologic state” value ([1]; Table 3, 1.5 mg/kg) was “+ (improving effects of pathologic state of 10 to 30%)”, the “improving effect of pathologic state” value ([1]; Table 3, 3.0 mg/kg) was “++ (30 to 70%)” and the “improving effect of pathologic state” value ([1]; Table 3, 4.5 mg/kg) was “+++ (70 to 100%)”. For the same compound, the “improving effect of pathologic state” value ([1]; Table 3, 6.0 mg/kg) was “+++ (70 to 100%)”, the “therapeutic effect as compared with MPA (in words)” value ([1]; any of the doses (1.5-6.0 mg/kg), compared with MPA) was “excellent therapeutic effect” and the “inhibition of neovascularization caused by prostaglandin E1 or cuprous chloride” value [2] was “perfectly inhibit the neovascularization”. The intoxication or lethality [3] was “no cases of intoxication or lethality”, the neovascularization inhibitory rate ([4]; Table 1, commercially available (Sigma), dose 1 μg) was “+ (10 to 80% (+))” and the neovascularization inhibitory rate ([4]; Table 1, commercially available (Sigma), dose 10 μg) was “++ (80 to 70% (++))”. For the same compound, the neovascularization inhibitory rate ([4]; Table 1, commercially available (Sigma), dose 100 μg) was “++ (80 to 70% (++))”, the neovascularization inhibitory rate ([4]; Table 1, commercially available (Sigma), dose 1,000 μg) was “+++ (70 to 100% (+++))” and the neovascularization inhibitory rate ([4]; Table 2, enzyme-synthesized, dose 1 μg) was “+ (10 to 80% (+))”. The neovascularization inhibitory rate ([4]; Table 2, enzyme-synthesized, dose 10 μg) was “++ (80 to 70% (++))”, the neovascularization inhibitory rate ([4]; Table 2, enzyme-synthesized, dose 100 μg) was “++ (80 to 70% (++))” and the neovascularization inhibitory rate ([4]; Table 2, enzyme-synthesized, dose 1,000 μg) was “+++ (70 to 100% (+++))”. The “neovascularization inhibitory effect (in words)” value ([4]; dose 10 μg) was “slight effect”, the “neovascularization inhibitory effect (in words)” value ([4]; dose at least 100 μg) was “perfect neovascularization inhibitory effect” and the “neovascularization inhibition (in words)” value ([4]; enzyme-synthesized, dose range 1 to 1,000 μg) was “inhibited neovascularization in a dose-dependent manner”.
